Results published in patent US7928227B2, “2-oxo-1,3,5-perhydrotriazapine derivatives useful in the treatment of hyper-proliferative, angiogenesis, and inflammatory disorders” (Bayer Healthcare LLC, priority 2003, dated 2011).

Experiments:
[1] = Pharmacokinetics in the mouse (plasma levels by LC-MS after oral gavage of Example 1); type: in vivo; details: for AUC / Cmax / concentration at 0.5 h / concentration at 1 h / concentration at 5 h: mouse, female ICr mice, single oral gavage of Example 1 at 30 mg/kg, plasma; for concentration at 0.5 h: 0.5 hours post dosing; for concentration at 1 h: 1 hour post dosing; for concentration at 5 h: 5 hours post dosing
Protocol: Female ICr mice received single doses of Example 1 by oral gavage at 30 mg/kg body weight. The vehicle used for administration consisted of 12.5% Cremophor, 12.5% ethanol and 75% saline. Blood samples were collected by cardiac puncture under anesthesia and plasma was isolated by centrifugation. Three animals were used for each time point of 0.5, 1 and 5 hours post dosing. Plasma levels of Example 1 and Intermediate 1 were measured by LC-MS.
Calibration samples (1 to 5,000 ng/mL) were prepared by spiking drug-free mouse plasma with known concentrations of Example 1 and Intermediate 1 and then processed with the study samples. An internal standard (close analog) was spiked at a final concentration of 100 ng/ml. Plasma samples were extracted via protein precipitation using acetonitrile (3:1). After vortexing for 1 minute, samples were centrifuged at 2500 rpm for 15 minutes. Supernatant was transferred to 96-well microtiter plates for LC-MS analysis. Analytes (Example 1 and Intermediate 1) and the internal standard were monitored using MRM transitions consisting of their protonated molecular ions to prominent fragment ions (Example 1 m/z 520 to m/z 270; Intermediate 1 m/z 465 to 252; internal standard m/z 469 to m/z 256). The calibration curve was constructed using least squares linear regression and utilized peak area ratios of the analyte and internal standard. Pharmacokinetic analysis of the measured plasma concentrations was conducted using the Watson® Drug Metabolism Laboratory Information Management System (Innaphase Corp, Philadelphia, Pa.). […] By changing the nature of substituent Q in Formula (I), it is possible to impact the stability, i.e., the speed of hydrolysis) of the prodrug, and therefore to modulate the plasma exposure to the pharmacologically active compound. High stabilities will lead to extended release of the drug, while low stabilities will contribute to high Cmax and short duration of action.

| Levels detected in plasma after oral administration of the pro-drug Example 1 ([1]; mice, oral gavage of Example 1 at 30 mg/kg, result in words) | AUC [1] [µM·h] | Cmax [1] [µM] | concentration at 0.5 h [1] [µM] | concentration at 1 h [1] [µM] | concentration at 5 h [1] [µM] | Absorption in mice ([1]; oral gavage of Example 1 at 30 mg/kg, result in words) | melting point [°C] | SMILES |
| --- | --- | --- | --- | --- | --- | --- | --- | --- |
| significant levels | 1 | 0.3 | 0.1 | 0.2 | 0.5 | – | – | CNC(=O)c1cc(Oc2ccc(NC(=O)Nc3ccc(Cl)c(C(F)(F)F)c3)cc2)ccn1 [Intermediate 1, N-(4-chloro-3(trifluoromethyl)phenyl)-N′-(4-(2-(N-methylcarbamoyl)-4-pyridyloxy)phenyl)urea, reference compound] |
| – | 53.1 | 13 | 12.1 | 13 | 9.4 | very well absorbed | 82 to 85 | CNC(=O)c1cc(Oc2ccc(N3CN(C)CN(c4ccc(Cl)c(C(F)(F)F)c4)C3=O)cc2)ccn1 [Example 1] |
